Where a name gives a salt, the structure may show the parent alone. Values belong to the compound of their own block, whether it stands above or below them.
Experiments:
[1] = Pharmacokinetics after oral administration, plasma by LC/MS/MS, rat; assay type: in vivo; conditions: for AUC(0-t) / DNAUC0-t / Cmax: oral, 10 mg/kg (as salt), 0.5% methylcellulose in water
Experimental: IV formulations were prepared in 1% DMSO in sterile saline. PO formulations were prepared in 0.5% methylcellulose in water, unless otherwise indicated. After compound administration, plasma samples were obtained through 24 hours post-dosing from each animal using K2EDTA as the anticoagulant. Plasma samples were treated with two volumes of acetonitrile containing an internal standard (ritanserin). Samples were centrifuged at 4,000 rpm for 10 minutes at 25° C. Ten microliters of the supernatant was analyzed using LC/MS/MS. Standard curves are prepared for each species and range from 1.0 to 500 ng/mL The compound of Formula (I) and the internal standard were separated by reverse-phase HPLC using a gradient mobile phase and detected by +APCI monitoring the transitions m/z 525→327 (compound of Formula (I)) and m/z 478→193 (ritanserin).

[2] = Pharmacokinetics after oral administration, plasma by LC/MS/MS, dog; assay type: in vivo; conditions: for DNAUC0-t / AUC(0-t) / Cmax: oral; for AUC(0-t) / Cmax: plasma
Experimental: (§1) IV formulations were prepared in 1% DMSO in sterile saline. PO formulations were prepared in 0.5% methylcellulose in water, unless otherwise indicated. After compound administration, plasma samples were obtained through 24 hours post-dosing from each animal using K2EDTA as the anticoagulant. Plasma samples were treated with two volumes of acetonitrile containing an internal standard (ritanserin). Samples were centrifuged at 4,000 rpm for 10 minutes at 25° C. Ten microliters of the supernatant was analyzed using LC/MS/MS.

[3] = Pharmacokinetics after oral administration, plasma by LC/MS/MS, monkey; assay type: in vivo; conditions: for DNAUC0-t / AUC(0-t) / Cmax: oral, 0.5% methylcellulose in water; for AUC(0-t) / Cmax: plasma
Experimental: as §1

Hygroscopicity = assay type: physicochemical
Water solubility = assay type: physicochemical
[4] = 1 mg/kg (as salt), 2% DMSO in water
[5] = 2 mg/kg (as salt), 0.5% methylcellulose in water

AUC(0-t) [1]: 477 ng·h/mL | DNAUC0-t [1]: 48 ng·h/mL | Cmax ([1]; plasma): 156 ng/mL | DNAUC0-t [2, 4]: 458 ng·h/mL | AUC(0-t) [2, 4]: 458 ng·h/mL | Cmax [2, 4]: 286 ng/mL | DNAUC0-t ([3]; 2 mg/kg (as salt)): 191 ng·h/mL | AUC(0-t) ([3]; 2 mg/kg (as salt)): 381 ng·h/mL | Cmax ([3]; 2 mg/kg (as salt)): 145 ng/mL
Compound: CN[C@H](CNC(=O)N1CCC[C@@H]([C@@H](OCCNC(=O)OC)c2cccc(Cl)c2)C1)C[C@H]1CCCOC1.O=C(O)/C=C/C(=O)O [Fumarate, methyl 2-((R)-(3-chlorophenyl)((R)-1-((S)-2-(methylamino)-3-((R)-tetrahydro-2H-pyran-3-yl)propylcarbamoyl)piperidin-3-yl)methoxy)ethylcarbamate fumaric acid salt]

in vivo bioavailability (in words) [1]: good in vivo bioavailability | DNAUC0-t [1]: 68 ng·h/mL | Cmax ([1]; plasma): 238 ng/mL | AUC(0-t) ([1]; plasma, read-out: AUC0-t): 681 ng·h/mL | in vivo bioavailability (in words) [2]: good in vivo bioavailability | DNAUC0-t [2, 5]: 447 ng·h/mL | AUC(0-t) [2, 5]: 895 ng·h/mL | Cmax [2, 5]: 294 ng/mL | in vivo bioavailability (in words) [3]: good in vivo bioavailability | DNAUC0-t ([3]; 3 mg/kg (as salt)): 269 ng·h/mL | AUC(0-t) ([3]; 3 mg/kg (as salt)): 807 ng·h/mL | Cmax ([3]; 3 mg/kg (as salt)): 266 ng/mL | hygroscopicity (in words) (Hygroscopicity): sufficiently non-hygroscopic | water solubility (in words) (Water solubility): good water solubility | solubility (Water solubility; water, temperature not stated): 65 ± 5 mg/mL
Compound: CN[C@H](CNC(=O)N1CCC[C@@H]([C@@H](OCCNC(=O)OC)c2cccc(Cl)c2)C1)C[C@H]1CCCOC1 [Mucate, methyl 2-((R)-(3-chlorophenyl)((R)-1-((S)-2-(methylamino)-3-((R)-tetrahydro-2H-pyran-3-yl)propylcarbamoyl)piperidin-3-yl)methoxy)ethylcarbamate mucic acid salt (Form B)]
